For 34 molecules, IC50 results are on record in patent publication US7732444B2, “2-(amino-substituted)-4-aryl pyrimidines and related compounds useful for treating inflammatory diseases” (Millennium Pharmaceuticals, Inc., priority 2004, dated 2010).

T1 sequence (Q04759 whole entry): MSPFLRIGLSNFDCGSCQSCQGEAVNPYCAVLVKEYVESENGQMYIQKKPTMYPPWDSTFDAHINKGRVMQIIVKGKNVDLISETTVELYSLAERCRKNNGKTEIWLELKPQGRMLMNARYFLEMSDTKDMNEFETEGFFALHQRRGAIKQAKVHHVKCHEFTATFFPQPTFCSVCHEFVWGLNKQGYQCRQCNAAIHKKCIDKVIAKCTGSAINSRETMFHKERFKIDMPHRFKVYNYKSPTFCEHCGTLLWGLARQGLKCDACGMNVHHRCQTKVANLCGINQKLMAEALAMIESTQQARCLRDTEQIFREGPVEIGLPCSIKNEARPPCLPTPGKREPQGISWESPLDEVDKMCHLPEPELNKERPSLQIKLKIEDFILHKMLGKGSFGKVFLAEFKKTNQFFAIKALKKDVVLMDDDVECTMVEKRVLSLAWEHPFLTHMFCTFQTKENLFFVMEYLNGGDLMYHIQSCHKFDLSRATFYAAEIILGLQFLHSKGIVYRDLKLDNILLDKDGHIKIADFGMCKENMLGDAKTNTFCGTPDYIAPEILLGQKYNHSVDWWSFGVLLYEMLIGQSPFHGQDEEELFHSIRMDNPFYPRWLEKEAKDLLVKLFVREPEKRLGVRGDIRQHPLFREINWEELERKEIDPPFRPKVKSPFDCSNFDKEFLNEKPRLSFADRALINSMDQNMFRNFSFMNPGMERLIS

The assay addresses T1, full length PKC θ (Homo sapiens, UniProt Q04759).
T1 construct: 15 μL of full length PKC θ (Panvera Corporation); purchased Panvera Corporation
In words: PKC-theta isoform inhibition assay (HTRF, 384 well plate). The conditions noted are these: full length PKC θ at 27 pM, peptide substrate 300 nM + 3 μM ATP, HTRF readout. In kind it is biochemical. The method, then: An in vitro assay for detecting and measuring inhibition activity against PKC-theta isoform by candidate pharmacological agents is useful for evaluating and selecting a compound that modulates PKC-theta isoform. An IC50 value can be calculated after running the assay. Following is an assay protocol for measuring PKC-theta isoform.
Per well of a 384 well plate, compounds at various concentrations in 5 μL of 20% DMSO were pre-incubated for about 30 minutes at about 25° C. with 15 μL of full length PKC θ (Panvera Corporation) at 27 pM in an assay buffer (25 mM Hepes, pH 7.5, 5 mM DTT, 10 mM MgCl2, 10 mM 2-glycerophosphate, 12.5 μg/mL 1,2-dioleoyl-rac-glycerol, 10 μg/mL L-α-phosphatidyl-L-serine, 0.1% Bovine Serum Albumin). 10 μL of peptide substrate (biotin-(CH2)6— RFARKGSLRQKNV —CONH2) at 300 nM+3 μM ATP were added to each well and incubated for about 1 hour before quenching with 10 μL of 250 mM EDTA. 40 μL of detection buffer (25 mM Hepes, pH 7.5, 100 mM KF, 0.1% Bovine Serum Albumin, 0.01% Tween20) containing 2 nM anti-phospho antibody 2B9 (MBL International) labeled with europium cryptate (Cis-Bio International) and 0.0064 μg/mL streptavidin-allophycocyanin (Prozyme) was added to each well and incubated for two hours. Signal was then read on a Discovery HTRF (Packard).
Turning to `CCN(CCCN)Cc1cccc(-c2ccnc(NCCc3ccc(O)cc3)n2)c1` [Compound 1, (4-{2-[4-(3-{[(3-Amino-propyl)-ethyl-amino]-methyl}-phenyl)-pyrimidin-2-ylamino]-ethyl}-phenol)], the half-maximal inhibitory concentration (IC50) is < 100 nM.

Regarding `CS(=O)(=O)N(CCCN)Cc1cccc(-c2ccnc(NCCc3ccc(O)cc3)n2)c1` [Compound 2, N-(3-Amino-propyl)-N-(3-{2-[2-(4-hydroxy-phenyl)-ethylamino]-pyrimidin-4-yl}-benzyl)-methanesulfonamide], the 50% inhibitory concentration (IC50) was < 100 nM.

In the case of `CS(=O)(=O)N(CCCN)Cc1cccc(-c2ccnc(NCCc3ccc(N)cc3)n2)c1` [Compound 5, N-(3-{2-[2-(4-Amino-phenyl)-ethylamino]-pyrimidin-4-yl}-benzyl)-N-(3-amino-propyl)-methanesulfonamide], the IC50 was < 100 nM.

Turning to `CS(=O)(=O)N(CCCN)Cc1cccc(-c2ccnc(NCCc3ccc(O)c(O)c3)n2)c1` [Compound 6, N-(3-Amino-propyl)-N-(3-{2-[2-(3,4-dihydroxy-phenyl)-ethylamino]-pyrimidin-4-yl}-benzyl)-methanesulfonamide], the IC50 is < 100 nM.

As for `COc1ccc(CCNc2nccc(-c3cccc(CN(CCCN)S(C)(=O)=O)c3)n2)cc1O` [Compound 8, N-(3-Amino-propyl)-N-(3-{2-[2-(3-hydroxy-4-methoxy-phenyl)-ethylamino]-pyrimidin-4-yl}-benzyl)-methanesulfonamide], the IC50 is < 100 nM.

`CS(=O)(=O)N(CCCN)Cc1cccc(-c2ccnc(NCCc3ccc(O)c([N+](=O)[O-])c3)n2)c1` [Compound 22, N-(3-Amino-propyl)-N-(3-{2-[2-(4-hydroxy-3-nitro-phenyl)-ethylamino]-pyrimidin-4-yl}-benzyl)-methanesulfonamide]: the concentration for half-maximal inhibition (IC50) is < 100 nM.

Regarding `CS(=O)(=O)N(CCCN)Cc1cccc(-c2ccnc(NCCc3ccc(O)c(Cl)c3)n2)c1` [Compound 24, N-(3-Amino-propyl)-N-(3-{2-[2-(3-chloro-4-hydroxy-phenyl)-ethylamino]-pyrimidin-4-yl}-benzyl)-methanesulfonamide], the IC50 is < 100 nM.

Consider `CS(=O)(=O)N(CCCN)Cc1cccc(-c2ccnc(NCCc3cccc(O)c3)n2)c1` [Compound 26, N-(3-Amino-propyl)-N-(3-{2-[2-(3-hydroxy-phenyl)-ethylamino]-pyrimidin-4-yl}-benzyl)-methanesulfonamide], for which the IC50 was < 100 nM.

On to `CS(=O)(=O)N(CCCN)Cc1cccc(-c2ccnc(NCCc3cc(Cl)c(O)c(Cl)c3)n2)c1` [Compound 29, N-(3-Amino-propyl)-N-(3-{2-[2-(3,5-dichloro-4-hydroxy-phenyl)-ethylamino]-pyrimidin-4-yl}-benzyl)-methanesulfonamide], for which the concentration for half-maximal inhibition (IC50) was < 100 nM.

Consider `CS(=O)(=O)N(CCCN)Cc1cccc(-c2ccnc(NCCc3ccc(O)c(Br)c3)n2)c1` [Compound 36, N-(3-Amino-propyl)-N-(3-{2-[2-(3-bromo-4-hydroxy-phenyl)-ethylamino]-pyrimidin-4-yl}-benzyl)-methanesulfonamide], for which the IC50 is < 100 nM.

`Oc1ccc(CCNc2nccc(-c3cccc(NC4CCNCC4)c3)n2)cc1` [Compound 38, 4-(2-{4-[3-(Piperidin-4-ylamino)-phenyl]-pyrimidin-2-ylamino}-ethyl)-phenol]: the IC50 is < 100 nM.

As to `COc1cc(CCNc2nccc(-c3cccc(NC4CCNCC4)c3)n2)ccc1O` [Compound 40, 2-Methoxy-4-(2-{4-[3-(piperidin-4-ylamino)-phenyl]-pyrimidin-2-ylamino}-ethyl)-phenol], the half-inhibitory concentration (IC50) was < 100 nM.

On to `Oc1ccc(CCNc2nccc(-c3cccc(NC4CCNCC4)c3)n2)cc1Cl` [Compound 45, 2-Chloro-4-(2-{4-[3-(piperidin-4-ylamino)-phenyl]-pyrimidin-2-ylamino}-ethyl)-phenol], for which the 50% inhibitory concentration (IC50) is < 100 nM.

As to `Oc1c(Cl)cc(CCNc2nccc(-c3cccc(NC4CCNCC4)c3)n2)cc1Cl` [Compound 48, 2,6-Dichloro-4-(2-{4-[3-(piperidin-4-ylamino)-phenyl]-pyrimidin-2-ylamino}-ethyl)-phenol], the half-inhibitory concentration (IC50) is < 100 nM.

On to `Oc1cccc(CCNc2nccc(-c3cccc(NC4CCNCC4)c3)n2)c1` [Compound 49, 3-(2-{4-[3-(Piperidin-4-ylamino)-phenyl]-pyrimidin-2-ylamino}-ethyl)-phenol], for which the IC50 was < 100 nM.

As to `Oc1ccc(CCNc2nccc(-c3cccc(NC4CCNCC4)c3)n2)cc1Br` [Compound 50, 2-Bromo-4-(2-{4-[3-(piperidin-4-ylamino)-phenyl]-pyrimidin-2-ylamino}-ethyl)-phenol], the concentration for half-maximal inhibition (IC50) was < 100 nM.

Consider `Oc1ccc(CCNc2nccc(-c3cccc(NC4CCCNC4)c3)n2)cc1` (stereo not shown) [Compound 53, 4-(2-{4-[3-(Piperidin-3-ylamino)-phenyl]-pyrimidin-2-ylamino}-ethyl)-phenol], for which the IC50 is < 100 nM.

On to `Oc1ccc(CCNc2nccc(-c3cccc(NC4CCCNC4)c3)n2)cc1Cl` (stereo not shown) [Compound 54, 2-Chloro-4-(2-{4-[3-(piperidin-3-ylamino)-phenyl]-pyrimidin-2-ylamino}-ethyl)-phenol], for which the IC50 is < 100 nM.

For the molecule `Oc1ccc(CCNc2nccc(-c3cccc(NC4CCNC4)c3)n2)cc1` (stereo not shown) [Compound 55, 4-(2-{4-[3-(Pyrrolidin-3-ylamino)-phenyl]-pyrimidin-2-ylamino}-ethyl)-phenol], the IC50 was < 100 nM.

For `CS(=O)(=O)N(CCCNC(=O)c1ccccn1)Cc1cccc(-c2ccnc(NCCc3ccc(O)cc3)n2)c1` [Compound 60, Pyridine-2-carboxylic acid {3-[(3-{2-[2-(4-hydroxy-phenyl)-ethylamino]-pyrimidin-4-yl}-benzyl)-methanesulfonyl-amino]-propyl}-amide], the IC50 is < 100 nM.

Turning to `Cc1ncccc1C(=O)NCCCN(Cc1cccc(-c2ccnc(NCCc3ccc(O)cc3)n2)c1)S(C)(=O)=O` [Compound 62], the IC50 is < 100 nM.

As to `CS(=O)(=O)N(CCCNS(=O)(=O)Cc1ccccc1)Cc1cccc(-c2ccnc(NCCc3ccc(O)cc3)n2)c1` [Compound 64, N-{3-[(3-{2-[2-(4-Hydroxy-phenyl)-ethylamino]-pyrimidin-4-yl}-benzyl)-methanesulfonyl-amino]-propyl}-C-phenyl-methanesulfonamide], the concentration for half-maximal inhibition (IC50) was < 100 nM.

Take `CS(=O)(=O)N(CCCNS(=O)(=O)c1ccccc1)Cc1cccc(-c2ccnc(NCCc3ccc(O)cc3)n2)c1` [Compound 65, N-{3-[(3-{2-[2-(4-Hydroxy-phenyl)-ethylamino]-pyrimidin-4-yl}-benzyl)-methanesulfonyl-amino]-propyl}-benzenesulfonamide]: the IC50 is < 100 nM.

On to `O=C(NCC1CCNC1)c1cccc(-c2ccnc(NCCc3ccc(O)cc3)n2)c1` (stereo not shown) [Compound 67, 3-{2-[2-(4-Hydroxy-phenyl)-ethylamino]-pyrimidin-4-yl}-N-pyrrolidin-3-ylmethyl-benzamide], for which the IC50 is < 100 nM.

As to `NCCCNC(=O)c1cccc(-c2ccnc(NCCc3ccc(O)cc3)n2)c1` [Compound 68, N-(3-Amino-propyl)-3-{2-[2-(4-hydroxy-phenyl)-ethylamino]-pyrimidin-4-yl}-benzamide], the concentration for half-maximal inhibition (IC50) was < 100 nM.

Take `CCN(Cc1cccnc1)c1cccc(-c2ccnc(NCCc3ccc(O)cc3)n2)c1` [Compound 80, 4-(2-{4-[3-(Ethyl-pyridin-3-ylmethyl-amino)-phenyl]-pyrimidin-2-ylamino}-ethyl)-phenol]: the IC50 was < 100 nM.

On to `CN1CCN(Cc2cccc(-c3ccnc(NCCc4ccc(O)cc4)n3)c2)CC1` [Compound 81, 4-(2-{4-[3-(4-Methyl-piperazin-1-ylmethyl)-phenyl]-pyrimidin-2-ylamino}-ethyl)-phenol], for which the IC50 was < 100 nM.

Take `CC(c1cccc(-c2ccnc(NCCc3ccc(O)cc3)n2)c1)N(CCCN)S(C)(=O)=O` (stereo not shown) [Compound 104]: the half-inhibitory concentration (IC50) was < 100 nM.

For the molecule `COc1cc(CCNc2nccc(-c3cccc(OC(C)C)c3)n2)ccc1O` [Compound 107, 4-{2-[4-(3-Isopropoxy-phenyl)-pyrimidin-2-ylamino]-ethyl}-2-methoxy-phenol], the 50% inhibitory concentration (IC50) is < 100 nM.

In the case of `CC(=O)N(Cc1cccc(-c2ccnc(NCCc3ccc(O)cc3)n2)c1)CC1CCNC1` (stereo not shown) [Compound 120, N-(3-{2-[2-(4-Hydroxy-phenyl)-ethylamino]-pyrimidin-4-yl}-benzyl)-N-pyrrolidin-3-ylmethyl-acetamide], the 50% inhibitory concentration (IC50) is < 100 nM.

For the molecule `CC(O)c1cccc(-c2ccnc(NCCc3ccc(O)cc3)n2)c1` (stereo not shown) [Compound 121, 4-(2-{4-[3-(1-Hydroxy-ethyl)-phenyl]-pyrimidin-2-ylamino}-ethyl)-phenol], the IC50 was < 100 nM.

Turning to `CCN(CC)CCCNCc1cccc(-c2ccnc(NCCc3ccc(O)cc3)n2)c1` [Compound 125, 4-[2-(4-{3-[(3-Diethylamino-propylamino)-methyl]-phenyl}-pyrimidin-2-ylamino)-ethyl]-phenol], the half-inhibitory concentration (IC50) was < 100 nM.

`CCN(CC)CCCN(CC)Cc1cccc(-c2ccnc(NCCc3ccc(O)cc3)n2)c1` [Compound 126]: the IC50 was < 100 nM.

Consider `C[C@H]1CNCCN1Cc1cccc(-c2ccnc(NCCc3cccc(F)c3)n2)c1` [Compound 130, [2-(3-Fluoro-phenyl)-ethyl]-{4-[3-(2-(S)-methyl-piperazin-1-ylmethyl)-phenyl]-pyrimidin-2-yl}-amine], for which the IC50 is < 100 nM.
